In general, CC50 refers to the concentration that lowers cell viability or growth by half. The EC90 is the concentration at which the effect reaches the 90% level. What is called EC50 is the concentration giving half of the maximal effect.

Molecules are shown by their SMILES. Like-named read-outs stand apart in the source and are kept apart here. Where only a bound is given, the exact number is not on record here.

Data set [1] deals with CEM-T4 cells. The experiment in a line: Cytotoxicity determination (MTT test, 7 days). In kind it is cell-based. Here is the method:
(§1) Cytotoxicity and anti-HIV activity of the compounds (XVIa-c) described above were examined in CEM-T4 cells according procedures described below.
(§2) Cytotoxicity determination—CC50 and CC90 parameters—For determination of compounds (XVIa-c) cytotoxicity CEM-T4 and CEM-A were cultured in standard conditions (37° C., 5% CO2) on 96 wells culture plates in media RPMI/FCS 10% (v/v). Experiments were carried out in media contained tested compounds in concentrations of appropriate range. Cultures in neat medium (RPMI, 10% FCS) were used as a control ones. Viability of cells were determined after 7 days using MTT test in which to each well of culture plate were added 10 μL of MTT solution (5 mg/mL) and cultures were incubated 3 hours in temperature 37° C. After centrifugation supernatant was removed and DMSO was added to lyse the cells and to dissolve crystals of farmazan. Measurement of colour intensity was done using a plate reader (λ560 nm).
(§3) Cytotoxicity calculation—reference absorbancy (K) was an average of measurements for five well of culture plate and accounts for 100% CEM-T4 or CEM-A cells viability. In each case absorbancy for cells cultured in media enriched with tested compounds was calculated as average of at least three measurements.
(§4) Cells viability (P) were calculated according to formula:
(§5) [formula] in which P—viability of cells, K—reference absorbancy, A—absorbancy for cells cultured in media enriched with tested compounds, T—absorbancy for neat medium (RPMI/10% FBS). On the basis of calculations graph showing dependence of viability and concentrations of tested compounds values of CC50 and CC90 were determined
Background: Tetrazolium dyes change colour on reduction, which living cells bring about.

Data set [2] deals with HIV. In words: Anti-HIV activity (inhibition of HIV replication, viral protein p24) in CEM-T4 cells. The note with it: for EC90: 90% inhibition of HIV replication; for SI50: selectivity index, CC50 vs EC50, CEM-T4 cells. Type of data set: cell-based. How it is done: as §1
Anti HIV activity (EC50 and EC90)—parameter EC50 is defined as concentration of compounds in which replication of HIV is inhibited by 50% and parameter EC90 is defined as concentration of compounds in which replication of HIV is inhibited by 90%. To determine these parameters CEM-T4 cells were preincubated 24 hours in standard conditions (37° C., 5% CO2) in standard medium [RPMI, FCS 10% (v/v)] enriched with tested compounds in concentrations in range 0.001-20 μM. Incubations were performed with 96 flat bottom wells culture plates. In each well 20000 cells were suspended in solution of tested compound (200 μL). For each concentration four cultures were done. As a reference, media containing AZT in concentration 1.25 μM, 2.5 μM, 5.0 μM, 10.0 μM, 20 μM were used. As a positive control of maximal replication of HIV, culture in neat standard medium [RPMI/FCS 10% (v/v)] was used. After 24 hours of incubation in medium enriched with tested compound and AZT, cells were inoculated with known amount of HIV and cultivation was continued 8 days and after this the amount of viral protein p24 (marker of HIV replication) was measured. Inhibition of HIV replication is presented as percentage of p24 content in culture performed with media containing tested compound and assuming that amount of p24 measured in control correspond 100% of HIV replication. The examinations of each tested substance for each concentration were run in triplicate.

For data set [3], the system named is HIV. On the set-up: SI50: unit not given beside the values. The settings on record: *Estimated in cells CEM-T4; Baba M. et al. 1987; cited from earlier work.
For data set [4], the system named is CEM-T4 cells. The note with it: cited from earlier work.
Data set [5] is described as follows: Cytotoxicity determination (MTT test, 7 days). In kind it is cell-based. The settings on record: human, CEM-T4 cells. Here is the method: as §1, §2, §3, §4, §5
Data set [6] deals with HIV. On the set-up: SI50: unit not given beside the values. The note with it: **Imbach J-L. et al. 1994; cited from earlier work.

Take `Cc1cn([C@H]2C[C@H](N=[N+]=[N-])[C@@H](COP(=O)(O)Nc3ccncc3)O2)c(=O)[nH]c1=O` [(XVITc)]: in the data set on CEM-T4 cells [1], the CC50 is greater than 190000 nM and the CC90 was greater than 190000 nM. Also, in the data set with HIV [2] (CEM-T4 cells, p24 after 8 days), the EC90 was found to be 6 nM. The SI50 in the data set on HIV [2] is listed as >>19000.

Consider `Nc1ncnc2c1ncn2[C@H]1CC[C@@H](CO)O1` [ddA, 2′,3′-dideoxyadenosine], for which, in the data set with HIV [3], the EC50 was 2500 nM and the SI50 is reported as >>100*. For the same compound, the cytotoxic concentration (CC50) in the data set on CEM-T4 cells [4] (*Estimated in cells CEM-T4, Baba M. et al. 1987) was greater than 250000 nM.

As for `Cc1cn([C@H]2C[C@H](N=[N+]=[N-])[C@@H](CO)O2)c(=O)[nH]c1=O` [AZT, 3′-azido-3′-deoxythymidine], the half-maximal cytotoxic concentration (CC50) at 7 days in data set [5] came to 60000 nM. In the data set with HIV [2] (Human immunodeficiency virus 1, 192 h, CEM-T4 cells, 50% inhibition of HIV replication, p24 after 8 days), this compound gave an EC50 of 1.1 nM. Besides, the EC90 with HIV [2] (Human immunodeficiency virus 1, 192 h, CEM-T4 cells, p24 after 8 days) was found to be 16 nM. The same compound had an SI50 in the data set on HIV [2] of 6000.

With `O=c1ccn([C@H]2CC[C@@H](CO)O2)c(=O)[nH]1` [ddU, 2′,3′-dideoxyuridine], in the data set with HIV [3], the EC50 is 48000 nM and the SI50 is >5.2*. The cytotoxic concentration (CC50) in the data set on CEM-T4 cells [4] was greater than 250000 nM.

Turning to `OC[C@@H]1CC[C@H](n2cnc3c(O)ncnc32)O1` [ddI, 2′,3′-dideoxyinosine], in the data set with HIV [6], the EC50 is 1100 nM and the SI50 is on record as >>91**.

Source of the values: patent US9206209B2, “Nucleotide analogue, method of synthesis of nucleotide analogue, use of nucleotide analogue, antiviral pro-nucleotide, pharmaceutical composition” (priority 2010, dated 2015).
